The EC50 is the concentration needed to bring the measured effect to its halfway point. A low value points to greater potency.

Drawing on patent US9630949B2, “Oxoazetidine derivatives, process for the preparation thereof and use thereof in human medicine and in cosmetics” (GALDERMA RESEARCH & DEVELOPMENT, priority 2008, dated 2017), this text covers EC50 for 24 compounds.

The target in one assay is hMC4R (Homo sapiens (Human), UniProt P32245). As to the kind of experiment: Transactivation test: melanocortin receptors (pCRE-Luc luciferase reporter), hMC4R. It is filed as cell-based. Particulars: HEK293 transfected with pCRE-Luc and hMC4R; products tested alone (agonist), 6 h incubation; % activity vs NDP-MSH 10 nM; IA: inactive. How it is done:
(§1) Transactivation Test: Melanocortin Receptors
(§2) HEK293 lines are transfected with the pCRE-Luc and hMC1R, hMC3R, hMC4R or hMC5R vectors. The cells are cultured at 37° C., 5% CO2, in DMEM medium supplemented with 10% of foetal calf serum.
(§3) In the presence of an activator (agonist), the melanocortin receptor will activate the cAMP pathway which, via the CRE-Luc vector, will result in the synthesis of luciferase. After the addition of a lysis buffer containing a luminescent substrate for luciferase, it will be possible to measure the luminescence proportional to the degree of activation or of inhibition of the receptor.
(§4) The products are solubilized at 10 mM in DMSO. They are tested in the form of dose-response at a final DMSO concentration of 0.1%. The range comprising 10 points and one zero begins at 10 μM with 4-fold dilutions. For testing agonists, the products are tested alone. For determining the behaviour of antagonists, the products of interest are tested in the presence of 1 nM NDP-MSH (reference agonist). The cells are seeded at a rate of 5000 cells per well (384 well plate) in serum-free DMEM medium, and incubated overnight at 37° C., 5% CO2.
(§5) The products and the reference ligand (NDP-MSH) are added the following day, and the plates are again incubated for 6 h at 37° C., 5% CO2. After the addition of lysis buffer containing luciferin, the plates are read on a Top-Count instrument. The results are standardized as % activity using the 100% (cells+NDP-MSH at 10 nM) and 0% (cells alone) controls. An EC50 is calculated for each product using the XLFit software. The results are given in nM.
In general terms: Reporter assays use an easily measured gene product as a stand-in for the process of interest.

The next assay addresses hMC1R (Homo sapiens (Human), UniProt Q01726). The assay is described as follows: Transactivation test: melanocortin receptors (pCRE-Luc luciferase reporter), hMC1R. Format: cell-based. As to conditions: HEK293 transfected with pCRE-Luc and hMC1R; products tested alone (agonist), 6 h incubation; % activity vs NDP-MSH 10 nM; IA: inactive. As for the experimental part:
as §1, §2, §3, §4, §5

Sequence of hMC4R (P32245 whole entry): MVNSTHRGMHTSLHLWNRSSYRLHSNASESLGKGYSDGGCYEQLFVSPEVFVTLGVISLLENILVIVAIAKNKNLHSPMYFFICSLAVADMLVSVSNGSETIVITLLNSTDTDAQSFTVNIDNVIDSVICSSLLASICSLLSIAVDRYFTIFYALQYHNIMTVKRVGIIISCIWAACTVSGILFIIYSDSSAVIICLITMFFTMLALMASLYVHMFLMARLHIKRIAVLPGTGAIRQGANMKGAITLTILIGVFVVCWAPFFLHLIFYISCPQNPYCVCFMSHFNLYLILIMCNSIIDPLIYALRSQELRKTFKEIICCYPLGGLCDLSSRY
Sequence of hMC1R (Q01726 whole entry): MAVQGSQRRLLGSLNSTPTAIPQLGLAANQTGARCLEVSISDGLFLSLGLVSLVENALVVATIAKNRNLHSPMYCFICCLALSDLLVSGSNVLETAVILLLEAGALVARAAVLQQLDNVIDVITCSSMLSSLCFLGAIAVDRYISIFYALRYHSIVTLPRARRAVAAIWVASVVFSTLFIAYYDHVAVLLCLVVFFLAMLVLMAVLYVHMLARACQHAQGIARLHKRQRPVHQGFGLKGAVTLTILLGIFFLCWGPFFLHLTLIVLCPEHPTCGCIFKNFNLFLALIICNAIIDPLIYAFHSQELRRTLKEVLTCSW

As for `CCCCCC1(c2ccccc2C)CN(C(=O)[C@@H](Cc2ccc(OC)cc2)NC(=O)CCc2c[nH]cn2)C1` [Compound 37, N-[(R)-1-(4-methoxybenzyl)-2-oxo-2-(3-pentyl-3-o-tolylazetidin-1-yl)ethyl]-3-(1H-imidazol-4-yl)propionamide], the concentration giving a half-maximal response (EC50) on hMC4R worked out at 2 µM; at hMC1R, 0.25 µM.
For the compound `CCCCOC1(c2ccccc2C)CN(C(=O)[C@@H](Cc2ccc(OC)cc2)NC(=O)CCc2c[nH]nn2)C1` [Compound 39, N-[(R)-2-(3-butoxy-3-o-tolylazetidin-1-yl)-1-(4-methoxybenzyl)-2-oxoethyl]-3-(1H-[1,2,3]triazol-4-yl)propionamide], the results for the EC50 on hMC4R and at hMC1R were 2 µM and 8 µM, respectively.
In the same order, the values of `CCCCOC1(c2ccccc2C)CN(C(=O)[C@@H](Cc2ccc(OC)cc2)NC(=O)CCC2N=NC(C)=N2)C1` (stereo partly drawn) [Compound 40, N-[(R)-2-(3-butoxy-3-o-tolylazetidin-1-yl)-1-(4-methoxybenzyl)-2-oxoethyl]-3-(5-methyl-3H-[1,2,4]triazol-3-yl)propionamide] are 0.5 µM and 8 µM.
In the same order, the values of `CCCCOC1(c2ccccc2C)CN(C(=O)[C@@H](Cc2ccc(OC)cc2)NC(=O)CCc2[nH]cnc2C)C1` [Compound 41, N-[(R)-2-(3-butoxy-3-o-tolylazetidin-1-yl)-1-(4-methoxybenzyl)-2-oxoethyl]-3-(5-methyl-3H-imidazol-4-yl)propionamide] are 1 µM and 0.12 µM.
In the same order, the values of `CCCCCC1(c2ccccc2)CN(C(=O)[C@@H](Cc2ccc(Cl)cc2)NC(=O)CCc2c[nH]cn2)C1` [Compound 45, N-[(R)-1-(4-chlorobenzyl)-2-oxo-2-(3-pentyl-3-phenylazetidin-1-yl)ethyl]-3-(1H-imidazol-4-yl)propionamide] are 2 µM and 2 µM.
On to `CCCCCC1(c2ccccc2)CN(C(=O)[C@@H](Cc2ccc(F)cc2)NC(=O)CCc2c[nH]cn2)C1` [Compound 46, N-[(R)-1-(4-fluorobenzyl)-2-oxo-2-(3-pentyl-3-phenylazetidin-1-yl)ethyl]-3-(1H-imidazol-4-yl)propionamide], for which the EC50 at hMC4R stood at 4 µM; at hMC1R, 1 µM.
In the same order, the values of `CCCCCC1(c2ccccc2)CN(C(=O)[C@@H](Cc2ccccc2)NC(=O)CCc2c[nH]cn2)C1` [Compound 47, N-[(R)-1-benzyl-2-oxo-2-(3-pentyl-3-phenylazetidin-1-yl)ethyl]-3-(1H-imidazol-4-yl)propionamide] are 4 µM and 0.5 µM.
In the case of `CCCCOC1(c2ccccc2C)CN(C(=O)[C@@H](Cc2ccc(OC)cc2)NC(=O)C=Cc2c[nH]cn2)C1` [Compound 48, N-[(R)-2-(3-butoxy-3-o-tolylazetidin-1-yl)-1-(4-methoxybenzyl)-2-oxoethyl]-3-(1H-imidazol-4-yl)acrylamide], the 50% effective concentration (EC50) is 0.5 µM at hMC4R and 4 µM on hMC1R.
On to `CCCCCC1(c2ccc(F)cc2F)CN(C(=O)[C@@H](Cc2ccc(OC)cc2)NC(=O)CCc2c[nH]cn2)C1` [Compound 49, N-[(R)-2-[3-(2,4-difluorophenyl)-3-pentylazetidin-1-yl]-1-(4-methoxybenzyl)-2-oxoethyl]-3-(1H-imidazol-4-yl)propionamide], for which the EC50 worked out at 2 µM at hMC4R and 0.015 µM at hMC1R.
As for `CCCCCC1(c2ccccc2)CN(C(=O)[C@@H](Cc2cccc(C(F)(F)F)c2)NC(=O)CCc2c[nH]cn2)C1` [Compound 50, N-[(R)-2-oxo-2-(3-pentyl-3-phenylazetidin-1-yl)-1-(3-trifluoromethylbenzyl)ethyl]-3-(1H-imidazol-4-yl)propionamide], the concentration giving a half-maximal response (EC50) came to 0.5 µM at hMC4R and 1 µM on hMC1R.
In the same order, the values of `CCCCCC1(c2ccccc2)CN(C(=O)[C@@H](Cc2ccc(Cl)c(Cl)c2)NC(=O)CCc2c[nH]cn2)C1` [Compound 52, N-[(R)-1-(3,4-dichlorobenzyl)-2-oxo-2-(3-pentyl-3-phenylazetidin-1-yl)ethyl]-3-(1H-imidazol-4-yl)propionamide] are 0.25 µM and 2 µM.
As for `CCCCCC1(c2ccccc2)CN(C(=O)[C@@H](Cc2ccc(F)c(F)c2)NC(=O)CCc2c[nH]cn2)C1` [Compound 53, N-[(R)-1-(3,4-difluorobenzyl)-2-oxo-2-(3-pentyl-3-phenylazetidin-1-yl)ethyl]-3-(1H-imidazol-4-yl)propionamide], the concentration giving a half-maximal response (EC50) came to 4 µM at hMC4R and 1 µM on hMC1R.
Regarding `CCCCCC1(c2cccc(F)c2)CN(C(=O)[C@@H](Cc2ccc(OC)cc2)NC(=O)CCc2c[nH]cn2)C1` [Compound 55, N-[(R)-2-[3-(3-fluorophenyl)-3-pentylazetidin-1-yl]-1-(4-methoxybenzyl)-2-oxoethyl]-3-(1H-imidazol-4-yl)propionamide], the results for the 50% effective concentration (EC50) at hMC4R and at hMC1R were 1 µM and 0.12 µM, respectively.
`CCCCCC1(c2ccccc2)CN(C(=O)[C@@H](Cc2cccc(F)c2)NC(=O)CCc2c[nH]cn2)C1` [Compound 56, N-[(R)-1-(3-fluorobenzyl)-2-oxo-2-(3-pentyl-3-phenylazetidin-1-yl)ethyl]-3-(1H-imidazol-4-yl)propionamide]: the EC50 at hMC4R came to 8 µM; on hMC1R it was 4 µM.
In the same order, the values of `CCCCCC1(c2ccccc2)CN(C(=O)[C@@H](Cc2ccccc2F)NC(=O)CCc2c[nH]cn2)C1` [Compound 57, N-[(R)-1-(2-fluorobenzyl)-2-oxo-2-(3-pentyl-3-phenylazetidin-1-yl)ethyl]-3-(1H-imidazol-4-yl)propionamide] are 4 µM and 1 µM.
Take `CCCCCC1(c2ccccc2)CN(C(=O)[C@@H](Cc2ccc(Cl)cc2Cl)NC(=O)CCc2c[nH]cn2)C1` [Compound 58, N-[(R)-1-(2,4-dichlorobenzyl)-2-oxo-2-(3-pentyl-3-phenylazetidin-1-yl)ethyl]-3-(1H-imidazol-4-yl)propionamide]: the EC50 at hMC4R amounted to 0.5 µM; on hMC1R, 2 µM.
In the same order, the values of `CCCCCC1(c2cc(F)ccc2F)CN(C(=O)[C@@H](Cc2ccc(OC)cc2)NC(=O)CCc2c[nH]cn2)C1` [Compound 60, N-[(R)-2-[3-(2,5-difluorophenyl)-3-pentylazetidin-1-yl]-1-(4-methoxybenzyl)-2-oxoethyl]-3-(1H-imidazol-4-yl)propionamide] are 0.1 µM and 0.12 µM.
In the same order, the values of `CCCCCC1(c2c(F)cccc2F)CN(C(=O)[C@@H](Cc2ccc(OC)cc2)NC(=O)CCc2c[nH]cn2)C1` [Compound 61, N-[(R)-2-[3-(2,6-difluorophenyl)-3-pentylazetidin-1-yl]-1-(4-methoxybenzyl)-2-oxoethyl]-3-(1H-imidazol-4-yl)propionamide] are 0.1 µM and 0.12 µM.
Turning to `CCCCOC1(c2ccccc2C)CN(C(=O)C(Cc2ccc(OC)cc2)NC(=O)CC(CC)c2c[nH]cn2)C1` (stereo not drawn) [Compound 63, N-[2-(3-butoxy-3-o-tolylazetidin-1-yl)-1-(4-methoxybenzyl)-2-oxoethyl]-3-(1H-imidazol-4-yl)pentyramide], the concentration for a half-maximal effect (EC50) on hMC4R and at hMC1R was 0.5 µM each time.
On to `CCCCCC1(c2ccccc2)CN(C(=O)[C@@H](Cc2ccc(OC)cc2)NC(=O)CCc2cncn2C)C1` [Compound 64, N-[(R)-1-(4-methoxybenzyl)-2-oxo-2-(3-pentyl-3-phenylazetidin-1-yl)ethyl]-3-(3-methyl-3H-imidazol-4-yl)propionamide], for which the figures for the concentration for a half-maximal effect (EC50) at hMC4R and at hMC1R were 0.5 µM and 2 µM, respectively.
In the same order, the values of `CCCCCC1(C2CCCCC2)CN(C(=O)[C@@H](Cc2ccc(OC)cc2)NC(=O)CCc2c[nH]cn2)C1` [Compound 66, N-[(R)-2-(3-cyclohexyl-3-pentylazetidin-1-yl)-1-(4-methoxybenzyl)-2-oxoethyl]-3-(1H-imidazol-4-yl)propionamide] are 0.25 µM and 0.25 µM.
In the same order, the values of `CCCCOC1(c2ccccc2C)CN(C(=O)[C@@H](Cc2ccc(OC)cc2)NC(=O)CCc2cncn2C)C1` [Compound 67, N-[(R)-2-(3-butoxy-3-o-tolylazetidin-1-yl)-1-(4-methoxybenzyl)-2-oxoethyl]-3-(3-methyl-3H-imidazol-4-yl)propionamide] are 0.5 µM and 0.5 µM.
In the same order, the values of `CCCCOC1(c2ccccc2F)CN(C(=O)[C@@H](Cc2ccc(OC)cc2)NC(=O)CCc2c[nH]cn2)C1` [Compound 68, N-[(R)-2-[3-Butoxy-3-(2-fluorophenyl)azetidin-1-yl]-1-(4-methoxybenzyl)-2-oxoethyl]-3-(1H-imidazol-4-yl)propionamide] are 2 µM and 0.06 µM.
Turning to `CCCCOC1(c2ccccc2C)CN(C(=O)[C@@H](Cc2ccc(OC)cc2)NC(=O)CCc2cn(C)cn2)C1` [Compound 69, N-[(R)-2-(3-Butoxy-3-o-tolylazetidin-1-yl)-1-(4-methoxybenzyl)-2-oxoethyl]-3-(1-methyl-1H-imidazol-4-yl)propionamide], the EC50 was found to be 8 µM on hMC4R and 1 µM on hMC1R.
